Experimental data from DBAASP.
Converted amounts (≈) assume the structure as drawn.

Columns and labels:
Assay in all cases: ≥ marks a high value that may be exact or a test limit, other limits are often not marked, values filed in µg/mL are converted to µM
[1] = system: Saccharomyces cerevisiae KCTC 7296
[2] = system: Trichosporon beigelii KCTC 7707
[3] = system: Candida albicans TIMM 1768
[4] = system: Staphylococcus aureus ATCC 33591
[5] = system: Pseudomonas aeruginosa ATCC 27853
[6] = system: Staphylococcus aureus ATCC 25923
[7] = system: Staphylococcus epidermidis ATCC 35984
[8] = system: Micrococcus luteus ATCC 10240
Escherichia coli BL21AI = system: Escherichia coli BL21AI

Structure (SMILES): CC[C@H](C)[C@H](NC(=O)[C@@H](NC(=O)[C@@H](N)CCCN=C(N)N)[C@@H](C)CC)C(=O)N[C@@H](CC(=O)O)C(=O)N[C@@H](CC(C)C)C(=O)N[C@@H](CC(C)C)C(=O)N[C@@H](Cc1c[nH]c2ccccc12)C(=O)N[C@@H](CCCN=C(N)N)C(=O)N[C@H](C(=O)N[C@@H](Cc1c[nH]c2ccccc12)C(=O)N[C@@H](CCCN=C(N)N)C(=O)N1CCC[C@H]1C(=O)N[C@@H](CCC(N)=O)C(=O)N[C@@H](CCCCN)C(=O)N1CCC[C@H]1C(=O)N[C@@H](CCCCN)C(=O)N[C@@H](Cc1ccccc1)C(=O)N[C@H](C(=O)N[C@H](C(=O)N[C@H](C(=O)N[C@@H](Cc1c[nH]c2ccccc12)C(=O)N[C@H](C(=O)N[C@@H](CCCN=C(N)N)C(N)=O)C(C)C)C(C)C)[C@@H](C)O)C(C)C)C(C)C [RIIDLLWRVWRPQKPKFVTVWVR]
- MIC [1]: 10 µM (≈ 29.9 µg/mL)
- MIC [2]: 10 µM (≈ 29.9 µg/mL)
- MIC [3]: 20 µM (≈ 59.8 µg/mL)

Structure (SMILES): CC[C@H](C)[C@H](NC(=O)[C@H](CCCCN)NC(=O)[C@@H](NC(=O)[C@H](Cc1ccccc1)NC(=O)[C@H](C)NC(=O)[C@H](CCCCN)NC(=O)CNC(=O)[C@H](Cc1ccccc1)NC(=O)[C@H](CCCCN)NC(=O)[C@H](CCCCN)NC(=O)[C@H](C)NC(=O)[C@H](CCCCN)NC(=O)[C@H](CCCCN)NC(=O)[C@H](CC(C)C)NC(=O)[C@@H](N)Cc1ccccc1)C(C)C)C(=O)N[C@@H](CC(C)C)C(=O)N[C@@H](CCCCN)C(N)=O [FLKKAKKFGKAFVKILK]
- MIC [4]: ≥ 128 µM
- MIC [5]: 1 µM (≈ 2 µg/mL)
- MIC [6]: 45.4 µM (≈ 90.5 µg/mL)
- MIC [7]: 1.42 µM (≈ 2.83 µg/mL)

Structure (SMILES): CC[C@H](C)[C@H](NC(=O)[C@H](CCCN=C(N)N)NC(=O)[C@H](CCCN=C(N)N)NC(=O)[C@@H]1CCCN1C(=O)[C@@H]1CCCN1C(=O)[C@H](CCCCN)NC(=O)[C@@H]1CCCN1C(=O)[C@H](CCCN=C(N)N)NC(=O)[C@@H]1CCCN1C(=O)[C@H](CC(C)C)NC(=O)[C@H](Cc1ccc(O)cc1)NC(=O)[C@@H]1CCCN1C(=O)[C@@H]1CCCN1C(=O)[C@H](CCCCN)NC(=O)[C@H](CC(=O)O)NC(=O)[C@@H](N)C(C)C)C(=O)N[C@@H](Cc1ccc(O)cc1)C(=O)N[C@@H](CC(N)=O)C(=O)N[C@@H](CC(N)=O)C(=O)N[C@@H](CCCN=C(N)N)C(=O)O [VDKPPYLPRPKPPRRIYNNR]
- MIC [8]: 6.46 µM (≈ 16 µg/mL)
- MIC (Escherichia coli BL21AI): 6.46 µM (≈ 16 µg/mL)

Structure (SMILES): CC[C@H](C)[C@H](NC(=O)[C@@H]1CCCN1C(=O)[C@H](CCCN=C(N)N)NC(=O)[C@@H]1CCCN1C(=O)[C@H](Cc1cnc[nH]1)NC(=O)[C@@H]1CCCN1C(=O)[C@@H]1CCCN1C(=O)[C@H](CCCN=C(N)N)NC(=O)[C@@H]1CCCN1C(=O)[C@H](CCC(N)=O)NC(=O)[C@@H]1CCCN1C(=O)[C@@H](NC(=O)[C@H](Cc1ccc(O)cc1)NC(=O)[C@@H](NC(=O)[C@@H]1CCCN1C(=O)[C@H](CCCN=C(N)N)NC(=O)[C@H](CC(N)=O)NC(=O)[C@H](CC(N)=O)NC(=O)CN)C(C)C)[C@@H](C)CC)C(=O)N[C@@H](CCCN=C(N)N)C(=O)N[C@H](C(=O)O)C(C)C [GNNRPVYIPQPRPPHPRPIRV]
- MIC [8]: 0.199 µM (≈ 0.49 µg/mL)
- MIC (Escherichia coli BL21AI): 6.35 µM (≈ 15.6 µg/mL)

Structure (SMILES): CC[C@H](C)[C@H](NC(=O)[C@@H](NC(=O)[C@@H](N)CCCN=C(N)N)[C@@H](C)CC)C(=O)N[C@@H](CC(=O)O)C(=O)N[C@@H](CC(C)C)C(=O)N[C@@H](CC(C)C)C(=O)N[C@@H](Cc1c[nH]c2ccccc12)C(=O)N[C@@H](CCCN=C(N)N)C(=O)N[C@H](C(=O)N[C@@H](CCCN=C(N)N)C(=O)N[C@@H](CCCN=C(N)N)C(=O)N1CCC[C@H]1C(=O)N[C@@H](Cc1c[nH]c2ccccc12)C(=O)N[C@@H](Cc1c[nH]c2ccccc12)C(=O)N1CCC[C@H]1C(=O)N[C@@H](CCCCN)C(=O)N[C@@H](Cc1ccccc1)C(=O)N[C@H](C(=O)N[C@H](C(=O)N[C@H](C(=O)N[C@@H](Cc1c[nH]c2ccccc12)C(=O)N[C@H](C(=O)N[C@@H](CCCN=C(N)N)C(N)=O)C(C)C)C(C)C)[C@@H](C)O)C(C)C)C(C)C [RIIDLLWRVRRPWWPKFVTVWVR]
- MIC [1]: 14.1 µM (≈ 43.5 µg/mL)
- MIC [2]: 20 µM (≈ 61.6 µg/mL)
- MIC [3]: 10 µM (≈ 30.8 µg/mL)
